This note sets out measurements from patent publication US8173689B2 (Novartis AG, priority 2006, dated 2012).

One test concerns the target T1, kinase domain of cKIT (Homo sapiens, UniProt P10721).
T1 construct: The kinase domain of cKIT was assayed in 50 mM Hepes; purchased Upstate 14-559
Put plainly: Inhibition of cKIT kinase signaling in an in vitro biochemical assay (alphascreen). Particulars: tested at about 1 μM; for inhibition at 1 µM: read-out: cKit percent inhibition. In general terms: In Alpha technology, singlet oxygen from a donor bead excites a nearby acceptor bead.

The target in test [1] is T2, cytoplasmic domain of the human CSF-1R (Homo sapiens, UniProt P07333).
T2 construct: Recombinant protein corresponding to the cytoplasmic domain of the human CSF-1R; purchased Invitrogen Corporation, Carlsbad, Calif; PV3249
T2 sequence (P07333 539-972 limits assumed): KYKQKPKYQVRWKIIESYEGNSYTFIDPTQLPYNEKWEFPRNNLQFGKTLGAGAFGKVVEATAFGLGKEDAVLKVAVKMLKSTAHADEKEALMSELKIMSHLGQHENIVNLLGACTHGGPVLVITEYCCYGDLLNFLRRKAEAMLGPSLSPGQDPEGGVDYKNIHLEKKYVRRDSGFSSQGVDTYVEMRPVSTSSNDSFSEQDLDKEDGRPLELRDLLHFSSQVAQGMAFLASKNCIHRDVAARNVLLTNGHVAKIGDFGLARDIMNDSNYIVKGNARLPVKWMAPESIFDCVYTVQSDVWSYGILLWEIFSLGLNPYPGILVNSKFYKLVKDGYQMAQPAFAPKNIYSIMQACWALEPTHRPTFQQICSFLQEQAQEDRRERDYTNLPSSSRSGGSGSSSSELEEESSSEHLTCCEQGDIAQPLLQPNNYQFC
Put plainly: In vitro kinase assay for colony stimulating factor-1 receptor (AlphaScreen). The note with it: tested at about 1 μM, read-out: CSF-1R percent inhibition. Format: biochemical. In outline: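 At a low ATP level of 1 μM, phosphate transfer by the cytoplasmic-domain kinase (4 nM) was quantified with an AlphaScreen anti-phosphotyrosine bead pair.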

The subject of test [2] is MNFS60 (murine AML cells). Kind of test: Cell viability assay in MCSF dependent MNFS60 cells (Cell Titer Glo). Particulars: Mus musculus, tested at about 1 μM, read-out: M-NFS-60 CP percent inhibition. Format: cell-based. In outline: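 Viability was read by Cell Titer Glo after 72 hrs at 37° C., 5% CO2, with triplicate conditions. Compounds were titrated 3-fold into MNFS60 cultures whose final MCSF level was 10 ng/ml. EC50 values came from curve fitting.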
A general note: ATP-based viability assays read luminescence as a measure of living cells.

The target of a further test is T3, kinase domain of PDGFRβ (Homo sapiens, UniProt P09619).
T3 construct: The kinase domain of PDGFRβ was assayed in 50 mM Hepes; purchased Invitrogen P3082
Put plainly: Inhibition of PDGFRb kinase signaling in an in vitro biochemical assay (alphascreen). Particulars: tested at about 1 μM; for inhibition at 1 µM: read-out: PDGFRβ percent inhibition.

The target of test [3] is T4, full-length human CSF-1R receptor (Homo sapiens, UniProt P07333).
T4 construct: transfected with the full-length human CSF-1R receptor cloned in house; expressed in transfected cells; host or cells: HEK293H (Invitrogen Cat. #11631017)
Kind of test: In vitro inhibition of CSF-1R receptor tyrosine phosphorylation in transfected HEK293H cells stimulated with MCSF. The format is cell-based. Particulars: HEK293-H, tested at about 1 μM, read-out: pCSF1R percent inhibition. The protocol: The lysate was then transferred to total CSF-1R antibody coated 96-well plates that had already been blocked with 3% Blocker A from Mesoscale discovery (MSD) for 2 hours and washed afterwards. Lysates were incubated overnight at 4° C. and the plates were then washed 4× with MSD Tris Wash Buffer. […] The plates were read on the Sector 6000 instrument (MSD). Raw data was imported in Abase and EC50s calculated with XL-fit data analysis software.

Like-named read-outs stand apart in the source and are kept apart here.

T3 sequence (P09619 600-962 limits assumed): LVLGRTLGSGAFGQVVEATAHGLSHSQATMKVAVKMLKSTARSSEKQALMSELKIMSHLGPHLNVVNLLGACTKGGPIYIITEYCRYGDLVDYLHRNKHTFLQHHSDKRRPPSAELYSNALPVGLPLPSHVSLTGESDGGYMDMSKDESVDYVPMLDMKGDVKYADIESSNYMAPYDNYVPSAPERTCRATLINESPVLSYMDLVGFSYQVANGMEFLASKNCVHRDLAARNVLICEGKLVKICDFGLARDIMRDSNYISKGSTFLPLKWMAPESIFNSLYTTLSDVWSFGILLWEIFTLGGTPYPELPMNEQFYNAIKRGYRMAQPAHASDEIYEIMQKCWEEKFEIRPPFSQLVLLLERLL
T4 sequence (P07333 20-972): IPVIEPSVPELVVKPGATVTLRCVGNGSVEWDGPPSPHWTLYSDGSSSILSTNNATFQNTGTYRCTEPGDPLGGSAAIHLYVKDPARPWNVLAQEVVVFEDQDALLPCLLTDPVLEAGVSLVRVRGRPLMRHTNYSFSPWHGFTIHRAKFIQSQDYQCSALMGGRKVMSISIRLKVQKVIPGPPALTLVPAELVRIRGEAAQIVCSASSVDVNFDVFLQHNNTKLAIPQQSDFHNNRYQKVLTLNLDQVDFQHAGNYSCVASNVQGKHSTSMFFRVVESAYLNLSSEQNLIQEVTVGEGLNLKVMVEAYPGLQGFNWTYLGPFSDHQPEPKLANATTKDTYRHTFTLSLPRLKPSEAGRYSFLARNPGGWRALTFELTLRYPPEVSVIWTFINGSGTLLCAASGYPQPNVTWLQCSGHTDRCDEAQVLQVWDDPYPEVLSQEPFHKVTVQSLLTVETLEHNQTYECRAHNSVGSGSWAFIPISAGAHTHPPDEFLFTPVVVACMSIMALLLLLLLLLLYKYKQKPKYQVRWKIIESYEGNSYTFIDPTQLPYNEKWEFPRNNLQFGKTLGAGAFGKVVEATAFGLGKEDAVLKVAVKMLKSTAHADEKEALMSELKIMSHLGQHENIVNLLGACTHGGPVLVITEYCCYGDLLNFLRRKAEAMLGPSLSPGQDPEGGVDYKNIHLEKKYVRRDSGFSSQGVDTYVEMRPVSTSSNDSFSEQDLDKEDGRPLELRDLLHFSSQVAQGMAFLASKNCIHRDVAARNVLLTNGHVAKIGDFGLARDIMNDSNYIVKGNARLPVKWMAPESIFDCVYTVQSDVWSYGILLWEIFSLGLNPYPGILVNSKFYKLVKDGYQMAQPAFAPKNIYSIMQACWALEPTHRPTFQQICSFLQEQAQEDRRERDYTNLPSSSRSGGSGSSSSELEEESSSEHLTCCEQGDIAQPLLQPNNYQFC
T1 sequence (P10721 589-937 limits assumed): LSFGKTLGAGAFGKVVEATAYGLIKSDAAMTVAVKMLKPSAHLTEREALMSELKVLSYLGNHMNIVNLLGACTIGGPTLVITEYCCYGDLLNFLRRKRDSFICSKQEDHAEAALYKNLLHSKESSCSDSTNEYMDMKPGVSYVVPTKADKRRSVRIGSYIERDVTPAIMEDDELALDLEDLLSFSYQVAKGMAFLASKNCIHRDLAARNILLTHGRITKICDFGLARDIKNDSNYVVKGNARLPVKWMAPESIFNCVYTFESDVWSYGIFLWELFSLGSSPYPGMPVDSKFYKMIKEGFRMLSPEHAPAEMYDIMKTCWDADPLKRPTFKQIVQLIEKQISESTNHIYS

In the case of `CNC(=O)c1cc(Oc2ccc3nc(NCc4c(F)cccc4F)sc3c2)ccn1` [Compound 149, 4-[2-(2,6-Difluoro-benzylamino)-benzothiazol-6-yloxy]-pyridine-2-carboxylic acid methylamide], the inhibition at 1 µM on kinase domain of cKIT came out at 4%; in test [1], 99%; in test [2] (MNFS60 cells) it was 67%; at kinase domain of PDGFRβ, 0%; in test [3] (HEK293H cells), 92%.
As to `CNC(=O)c1cc(Oc2ccc3nc(N[C@H](C)c4ccccc4)sc3c2)ccn1` [Compound 131, 4-[2-((R)-1-Phenyl-ethylamino)-benzothiazol-6-yloxy]-pyridine-2-carboxylic acid methylamide], the inhibition at 1 µM on kinase domain of cKIT was 96%; in test [1] it was 99%; in test [2] (MNFS60 cells), 100%; at kinase domain of PDGFRβ, 55%; in test [3] (HEK293H cells) it was 98%.
For `CNC(=O)c1cc(Oc2ccc3nc(N[C@@H]4CCc5ccccc5C4)sc3c2)ccn1` [Example 329, (R)-N-methyl-4-(2-(1,2,3,4-tetrahydronaphthalen-2-ylamino)benzo[d]thiazol-6-yloxy)picolinamide], the inhibition at 1 µM turned out to be 59% on kinase domain of cKIT; 100% in test [1]; 84% in test [2] (MCSF dependent MNFS60 cells); 17% at kinase domain of PDGFRβ; 92% in test [3] (HEK293H cells).
The matching figures for `Cn1cc(-c2cc(Oc3ccc4nc(N[C@H]5CCCN(S(=O)(=O)C6CC6)C5)sc4c3)ccn2)cn1` [Example 373, (S)-N-(1-(cyclopropylsulfonyl)piperidin-3-yl)-6-(2-(1-methyl-1H-pyrazol-4-yl)pyridin-4-yloxy)benzo[d]thiazol-2-amine]: 51%, 101%, 100%, 0% and 91%.
Consider `CNC(=O)c1cc(Oc2ccc3nc(NCc4ccccc4OC)oc3c2)ccn1` [Compound 17, 4-[2-(2-Methoxy-benzylamino)-benzooxazol-6-yloxy]-pyridine-2-carboxylic acid methylamide], for which the inhibition at 1 µM was determined as 85% at kinase domain of cKIT; 100% in test [1]; 81% in test [2] (MNFS60 cells); 10% at kinase domain of PDGFRβ; 94% in test [3] (HEK293H cells).
Take `COCCn1cc(-c2cc(Oc3ccc4nc(N[C@@H]5CCCC[C@H]5O)sc4c3)ccn2)cn1` [Example 260, (1R,2R)-2-(6-(2-(1-(2-methoxyethyl)-1H-pyrazol-4-yl)pyridin-4-yloxy)benzo[d]thiazol-2-ylamino)cyclohexanol]: the inhibition at 1 µM on kinase domain of cKIT (compounds of Table 3) is 25%; in test [1] (compounds of Table 3) it was 100%; in test [2] (compounds of Table 3), 100%; on kinase domain of PDGFRβ (compounds of Table 3), 0%; in test [3] (compounds of Table 3) it was 98%.
`CNC(=O)c1cc(Oc2ccc3nc(N[C@@H]4CCCC[C@H]4O)sc3c2)ccn1` [Compound 157, 4-[2-((1R,2R)-2-Hydroxy-cyclohexylamino)-benzothiazol-6-yloxy]-pyridine-2-carboxylic acid methylamide] had a cKit percent inhibition on kinase domain of cKIT of 20%. Moreover, the inhibition at 1 µM in test [1] worked out at 100%; in test [2] (MNFS60 cells) it was 100%; in test [3] (HEK293H cells) it was 99%. The PDGFRβ percent inhibition on kinase domain of PDGFRβ stood at 20%.
As to `CCCn1cc(-c2cc(Oc3ccc4nc(N[C@@H](C)C5CCCCC5)sc4c3)ccn2)cn1` [Example 273, (S)-N-(1-cyclohexylethyl)-6-(2-(1-propyl-1H-pyrazol-4-yl)pyridin-4-yloxy)benzo[d]thiazol-2-amine], the inhibition at 1 µM was 41% at kinase domain of cKIT (compounds of Table 3); 100% in test [1] (compounds of Table 3); 95% in test [2] (compounds of Table 3); 14% on kinase domain of PDGFRβ (compounds of Table 3); 88% in test [3] (compounds of Table 3).
The matching figures for `CCc1[nH]c(-c2cc(Oc3ccc4nc(N[C@@H]5CCCC[C@H]5O)sc4c3)ccn2)nc1C` [Cmpd 162, (1R,2R)-2-(6-(2-(5-ethyl-4-methyl-1H-imidazol-2-yl)pyridin-4-yloxy)benzo[d]thiazol-2-ylamino)cyclohexanol]: 20%, 100%, 100%, 30% and 99%.
Consider `CNC(=O)c1cc(Oc2ccc3nc(NCCc4ccccc4)sc3c2)ccn1` [Compound 133, 4-(2-Phenethylamino-benzo-thiazol-6-yloxy)-pyridine-2-carboxylic acid methylamide], for which the inhibition at 1 µM came to 53% at kinase domain of cKIT; 99% in test [1]; 45% in test [2] (MNFS60 cells); 3% on kinase domain of PDGFRβ; 92% in test [3] (HEK293H cells).
The matching figures for `CNC(=O)c1cc(Oc2ccc3nc(N[C@@H](CO)C4CCCCC4)oc3c2)ccn1` [Compound 67, 4-[2-((R)-1-Cyclohexyl-2-hydroxy-ethylamino)-benzo-oxazol-6-yloxy]-pyridine-2-carboxylic acid methylamide]: 8%, 97%, 10%, 1% and 0%.
As for `C[C@H](Nc1nc2ccc(Oc3ccnc(-c4ccncc4)c3)cc2s1)C1CCCCC1` [Example 275, (S)-6-(2,4'-bipyridin-4-yloxy)-N-(1-cyclohexylethyl)benzo[d] thiazol-2-amine], the inhibition at 1 µM at kinase domain of cKIT (compounds of Table 3) worked out at 45%; in test [1] (compounds of Table 3) it was 100%; in test [2] (compounds of Table 3), 89%; on kinase domain of PDGFRβ (compounds of Table 3), 16%; in test [3] (compounds of Table 3) it was 94%.
As for `Cc1cnc(-c2cc(Oc3ccc4nc(NCC5CCCCC5)oc4c3)ccn2)[nH]1` [Compound 109, Cyclohexylmethyl-{6-[2-(5-methyl-1H-imidazol-2-yl)-pyridin-4-yloxy]-benzooxazol-2-yl}-amine], the inhibition at 1 µM is 53% on kinase domain of cKIT; 100% in test [1]; 81% in test [2] (MNFS60 cells); 75% at kinase domain of PDGFRβ; 90% in test [3] (HEK293H cells).
For the compound `CC(C)Cn1cc(-c2cc(Oc3ccc4nc(N[C@@H]5CCCC[C@H]5O)sc4c3)ccn2)cn1` [Example 359, (1R,2R)-2-(6-(2-(1-isobutyl-1H-pyrazol-4-yl)pyridin-4-yloxy)benzo[d]thiazol-2-ylamino)cyclohexanol], the inhibition at 1 µM on kinase domain of cKIT came to 31%; in test [1], 100%; in test [2] (MCSF dependent MNFS60 cells) it was 95%; on kinase domain of PDGFRβ it was 19%; in test [3] (HEK293H cells), 93%.
For `CCCc1nc(-c2cc(Oc3ccc4nc(N[C@@H]5CCCC[C@H]5O)sc4c3)ccn2)[nH]c1C` [Example 267, (1R,2R)-2-(6-(2-(5-methyl-4-propyl-1H-imidazol-2-yl)pyridin-4-yloxy)benzo[d]thiazol-2-ylamino)cyclohexanol], the inhibition at 1 µM turned out to be 16% on kinase domain of cKIT (compounds of Table 3); 100% in test [1] (compounds of Table 3); 100% in test [2] (compounds of Table 3); 26% on kinase domain of PDGFRβ (compounds of Table 3); 96% in test [3] (compounds of Table 3).
As for `Cc1nc(-c2cc(Oc3ccc4nc(N[C@@H]5CCCC[C@H]5O)sc4c3)ccn2)[nH]c1C` [Example 232, (1R,2R)-2-(6-(2-(4,5-dimethyl-1H-imidazol-2-yl)pyridin-4-yloxy)benzo[d]thiazol-2-ylamino)cyclohexanol], the inhibition at 1 µM at kinase domain of cKIT (compounds of Table 3) came to 34%; in test [1] (compounds of Table 3), 100%; in test [2] (compounds of Table 3), 100%; on kinase domain of PDGFRβ (compounds of Table 3) it was 64%; in test [3] (compounds of Table 3) it was 99%.

For orientation: inhibition means the drop in the measured response relative to a control, in per cent.
